Data on 29 compounds can be found in patent US8431565B2 (priority 2007, dated 2013).

Molecules are shown by their SMILES.

In general, EC50 refers to the concentration that produces a half-maximal response. Higher therefore signals weaker potency.

The target in the experiment is T1, rat CB2 receptor (rCB2) (Rattus norvegicus, UniProt Q9QZN9).
T1 sequence (Q9QZN9 1-360): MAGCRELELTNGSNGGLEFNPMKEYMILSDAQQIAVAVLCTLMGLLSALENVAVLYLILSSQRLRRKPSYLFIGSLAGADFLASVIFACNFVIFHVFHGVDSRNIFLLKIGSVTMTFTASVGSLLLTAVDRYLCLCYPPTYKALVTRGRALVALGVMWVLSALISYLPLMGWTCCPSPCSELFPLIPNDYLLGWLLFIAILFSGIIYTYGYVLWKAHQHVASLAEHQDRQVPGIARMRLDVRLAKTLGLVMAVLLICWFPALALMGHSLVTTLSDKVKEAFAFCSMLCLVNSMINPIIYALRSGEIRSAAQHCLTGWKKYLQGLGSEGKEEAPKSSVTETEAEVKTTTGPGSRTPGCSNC
`CNC(=O)[C@@H](NC(=O)c1nc(-c2ccsc2)n2c1CN(CC1CC1)CC2)C(C)(C)C` [Compound 74, (S)-7-(cyclopropylmethyl)-N-(3,3-dimethyl-1-(methylamino)-1-oxobutan-2-yl)-3-(thiophen-3-yl)-5,6,7,8-tetrahydroimidazo[1,5-a]pyrazine-1-carboxamide] displayed an EC50 of 10 to 100 nM.
`CC(C)CN1CCn2c(-c3ccccc3)nc(C(=O)N[C@H](CO)C(C)(C)C)c2C1` [Compound 60, (S)-N-(1-hydroxy-3,3-dimethylbutan-2-yl)-7-isobutyl-3-phenyl-5,6,7,8-tetrahydroimidazo[1,5-a]pyrazine-1-carboxamide] registered a 50% effective concentration (EC50) of 10 to 100 nM.
For the compound `CNC(=O)[C@@H](NC(=O)c1nc(-c2cc(C)ccc2F)n2c1CN(C)CC2)C(C)(C)C` [Compound 251, (S)-N-(3,3-dimethyl-1-(methylamino)-1-oxobutan-2-yl)-3-(2-fluoro-5-methylphenyl)-7-methyl-5,6,7,8-tetrahydroimidazo[1,5-a]pyrazine-1-carboxamide], the EC50 fell in the range of 10 to 100 nM.
Consider `CC(C)CN1CCn2c(-c3ccc(Cl)cc3)nc(C(=O)N[C@H](CO)C(C)(C)C)c2C1` [Compound 160, (S)-3-(4-chlorophenyl)-N-(1-hydroxy-3,3-dimethylbutan-2-yl)-7-isobutyl-5,6,7,8-tetrahydroimidazo[1,5-a]pyrazine-1-carboxamide], for which the EC50 was 0.1 to 10 nM.
With `CC(C)CCNC(=O)c1nc(-c2ccc(Cl)cc2)n2c1CN(C(=O)C1CC1)CC2` [Compound 131, 3-(4-chlorophenyl)-7-(cyclopropanecarbonyl)-N-isopentyl-5,6,7,8-tetrahydroimidazo[1,5-a]pyrazine-1-carboxamide], the EC50 lay within 10 to 100 nM.
With `CC(C)(C)OC(=O)N1CCn2c(-c3ccccc3)nc(C(=O)NC3C4(C)CCC(C4)C3(C)C)c2C1` (centres unmarked) [Compound 30, tert-butyl 3-phenyl-1-(1,3,3-trimethylbicyclo[2.2.1]heptan-2-ylcarbamoyl)-5,6-dihydroimidazo[1,5-a]pyrazine-7(8H)-carboxylate], the half-maximal effective concentration (EC50) was 10 to 100 nM.
Take `COC(=O)[C@@H](NC(=O)c1nc(-c2ccc(C)cc2F)n2c1CNCCC2)C(C)(C)C` [Compound 466]: the EC50 lay within 10 to 100 nM.
The compound `CC(C)CN1CCn2c(-c3ccccc3)nc(C(=O)NCC(C)(C)C)c2C1` [Compound 58, 7-isobutyl-N-neopentyl-3-phenyl-5,6,7,8-tetrahydroimidazo[1,5-a]pyrazine-1-carboxamide] yielded an EC50 of 10 to 100 nM.
As to `COC(=O)N1CCn2c(-c3ccc(Cl)cc3)nc(C(=O)NCCC(C)C)c2C1` [Compound 183, methyl 3-(4-chlorophenyl)-1-(isopentylcarbamoyl)-5,6-dihydroimidazol[1,5-a]pyrazine-7(8H)-carboxylate], the EC50 lay in the range of 10 to 100 nM.
With `CCN1CCn2c(-c3ccccc3)nc(C(=O)N[C@H](C)C3CCCCC3)c2C1` [Compound 164, (R)-N-(1-cyclohexylethyl)-7-ethyl-3-phenyl-5,6,7,8-tetrahydroimidazo[1,5-a]pyrazine-1-carboxamide], the EC50 was in the range of 10 to 100 nM.
Under `CCCN1CCn2c(-c3ccccc3)nc(C(=O)Nc3ccccc3)c2C1` [Compound 154, N,3-diphenyl-7-propyl-5,6,7,8-tetrahydroimidazo[1,5-a]pyrazine-1-carboxamide] stands 10 to 100 nM; under `CC(C)(C)CNC(=O)c1nc(-c2ccccc2)n2c1CN(S(=O)(=O)c1ccc(F)cc1)CC2` [Compound 103, 7-(4-fluorophenylsulfonyl)-N-neopentyl-3-phenyl-5,6,7,8-tetrahydroimidazo[1,5-a]pyrazine-1-carboxamide], 10 to 100 nM.
Regarding `CNC(=O)[C@@H](NC(=O)c1nc(-c2ccc(F)c(C)c2)n2c1CNCC2)C(C)(C)C` [Compound 7, (S)-N-(3,3-dimethyl-1-(methylamino)-1-oxobutan-2-yl)-3-(4-fluoro-3-methylphenyl)-5,6,7,8-tetrahydroimidazo[1,5-a]pyrazin-1-carboxamide], the EC50 lay in the range of 10 to 100 nM.
On to `CC(C)CN1CCn2c(-c3ccccc3)nc(C(=O)N[C@H](C)C3CCCCC3)c2C1` [Compound 163, (R)-N-(1-cyclohexylethyl)-7-isobutyl-3-phenyl-5,6,7,8-tetrahydroimidazo[1,5-a]pyrazine-1-carboxamide], for which the concentration giving a half-maximal response (EC50) was in the range of 0.1 to 10 nM.
Under `CNC(=O)[C@@H](NC(=O)c1nc(C2=CCNCC2)n2c1CN(C)CC2)C(C)(C)C` [Compound 274, (S)-N-(3,3-dimethyl-1-(methylamino)-1-oxobutan-2-yl)-7-methyl-3-(1,2,3,6-tetrahydropyridin-4-yl)-5,6,7,8-tetrahydroimidazo[1,5-a]pyrazine-1-carboxamide] stands 10 to 100 nM; under `Cc1ccc(-c2nc(C(=O)N[C@H](c3nc(C)no3)C(C)(C)C)c3n2CCCN(C(=O)OC(C)(C)C)C3)c(F)c1` [Compound 518, (S)-tert-butyl 1-(2,2-dimethyl-1-(3-methyl-1,2,4-oxadiazol-5-yl)propylcarbamoyl)-3-(2-fluoro-4-methylphenyl)-6,7-dihydro-5H-imidazo[1,5-a][1,4]diazepine-8(9H)-carboxylate], 10 to 100 nM; under `CNC(=O)[C@@H](NC(=O)c1nc(-c2ccc(-c3ccccc3)cc2)n2c1CN(C)CC2)C(C)(C)C` [Compound 265, (S)-3-(biphenyl-4-yl)-N-(3,3-dimethyl-1-(methylamino)-1-oxobutan-2-yl)-7-methyl-5,6,7,8-tetrahydroimidazo[1,5-a]pyrazine-1-carboxamide], 10 to 100 nM.
In turn, `COC(=O)N1CCn2c(-c3ccccc3)nc(C(=O)N[C@@H](C)c3ccccc3)c2C1` [Compound 179, (S)-methyl 3-phenyl-1-(1-phenylethylcarbamoyl)-5,6-dihydroimidazo[1,5-a]pyrazine-7(8H)-carboxylate] came in with an EC50 of 10 to 100 nM.
As to `CC(C)CN1CCn2c(-c3ccccc3)nc(C(=O)NC3C4(C)CCC(C4)C3(C)C)c2C1` (centres unmarked) [Compound 142, 7-isobutyl-3-phenyl-N-(1,3,3-trimethylbicyclo[2.2.1]heptan-2-yl)-5,6,7,8-tetrahydroimidazo[1,5-a]pyrazine-1-carboxamide], the EC50 lay in the range of 10 to 100 nM.
The result for `CC(C)CN1CCn2c(-c3ccccc3)nc(C(=O)NC3CCCCC3)c2C1` [Compound 165, N-cyclohexyl-7-isobutyl-3-phenyl-5,6,7,8-tetrahydroimidazo[1,5-a]pyrazine-1-carboxamide] reads 0.1 to 10 nM; that for `CNC(=O)[C@@H](NC(=O)c1nc(C2=CCC(C)CC2)n2c1CN(C)CC2)C(C)(C)C` (stereo partly drawn) [Compound 270, N-((S)-3,3-dimethyl-1-(methylamino)-1-oxobutan-2-yl)-7-methyl-3-(4-methylcyclohex-1-enyl)-5,6,7,8-tetrahydroimidazo[1,5-a]pyrazine-1-carboxamide], 10 to 100 nM; that for `CCN1CCn2c(-c3ccccc3)nc(C(=O)NC3C4(C)CCC(C4)C3(C)C)c2C1` (centres unmarked) [Compound 144, 7-ethyl-3-phenyl-N-(1,3,3-trimethylbicyclo[2.2.1]heptan-2-yl)-5,6,7,8-tetrahydroimidazo[1,5-a]pyrazine-1-carboxamide], 0.1 to 10 nM.
Under `CNC(=O)[C@@H](NC(=O)c1nc(-c2cccc(C(F)(F)F)c2)n2c1CNCC2)C(C)(C)C` [Compound 3, (S)-N-(3,3-dimethyl-1-(methylamino)-1-oxobutan-2-yl)-3-(3-(trifluoromethyl)phenyl)-5,6,7,8-tetrahydroimidazo[1,5-a]pyrazin-1-carboxamide] stands 10 to 100 nM; under `CNC(=O)[C@@H](NC(=O)c1nc(-c2ccccc2)n2c1CN(c1cncc(Cl)n1)CC2)C(C)(C)C` [Compound 300, (S)-7-(6-chloropyrazin-2-yl)-N-(3,3-dimethyl-1-(methylamino)-1-oxobutan-2-yl)-3-phenyl-5,6,7,8-tetrahydroimidazo[1,5-a]pyrazine-1-carboxamide], 10 to 100 nM.
Consider `CC(C)CN1CCn2c(-c3ccccc3)nc(C(=O)N[C@H](C)C(C)(C)C)c2C1` [Compound 52, (R)-N-(3,3-dimethylbutan-2-yl)-7-isobutyl-3-phenyl-5,6,7,8-tetrahydrimidazo[1,5-a]pyrazine-1-carboxamide], for which the EC50 was in the range of 0.1 to 10 nM.
`Cc1noc([C@@H](NC(=O)c2nc(-c3ccccc3)n3c2CN(CC(C)C)CC3)C(C)(C)C)n1` [Compound 90, (S)-N-(2,2-dimethyl-1-(3-methyl-1,2,4-oxadiazol-5-yl)propyl)-7-isobutyl-3-phenyl-5,6,7,8-tetrahydroimidazo[1,5-a]pyrazine-1-carboxamide] yielded an EC50 of 0.1 to 10 nM.
As to `CC12CCC(C1)C(C)(C)C2NC(=O)c1nc(-c2ccccc2)n2c1CN(CCO)CC2` (centres unmarked) [Compound 143, 7-(2-hydroxyethyl)-3-phenyl-N-(1,3,3-trimethylbicyclo[2.2.1]heptan-2-yl)-5,6,7,8-tetrahydroimidazo[1,5-a]pyrazine-1-carboxamide], the EC50 is 10 to 100 nM.
Consider `CNC(=O)[C@@H](NC(=O)c1nc(-c2ccc(Cl)cc2F)n2c1CN(C)CC2)C(C)(C)C` [Compound 241, (S)-3-(4-chloro-2-fluorophenyl)-N-(3,3-dimethyl-1-(methylamino)-1-oxobutan-2-yl)-7-methyl-5,6,7,8-tetrahydroimidazo[1,5-a]pyrazine-1-carboxamide], for which the EC50 lay in the range of 0.1 to 10 nM.
For the compound `CNC(=O)[C@@H](NC(=O)c1nc(/C=C/Cc2ccccc2)n2c1CN(C)CCC2)C(C)(C)C` [Compound 458, (S,E)-N-(3,3-dimethyl-1-(methylamino)-1-oxobutan-2-yl)-8-methyl-3-(3-phenylprop-1-enyl)-6,7,8,9-tetrahydro-5H-imidazo[1,5-a][1,4]diazepine-1-carboxamide], the EC50 fell in the range of 10 to 100 nM.
